Laboratory results as given in patent publication US20220241416A1, “METHODS FOR THE IDENTIFICATION OF SARM1 NADASE ACTIVITY INHIBITORS AND USES THEREOF” (Bar Ilan University, priority 2021, published 2022).
Entries after “also recorded” stand apart in the source; their conditions may differ. Like-named read-outs stand apart in the source and are kept apart here.

Experiments:
hSARM1 [1] = target: T1, hSARM1 (Homo sapiens, UniProt Q6SZW1); experiment: HPLC analysis of time dependent NAD+ consumption by hSARM1; assay type: biochemical; conditions: 50 μM NAD+
T1 construct: hSARM1w.t; (26ERL . . . GPT724) that was not mutated in E642, was also expressed and isolated; 6xHis (N); TEV cleavage site (N); made in house; host or cells: HEK293F suspension cells
T1 sequence (Q6SZW1 with tags, fused parts or gaps): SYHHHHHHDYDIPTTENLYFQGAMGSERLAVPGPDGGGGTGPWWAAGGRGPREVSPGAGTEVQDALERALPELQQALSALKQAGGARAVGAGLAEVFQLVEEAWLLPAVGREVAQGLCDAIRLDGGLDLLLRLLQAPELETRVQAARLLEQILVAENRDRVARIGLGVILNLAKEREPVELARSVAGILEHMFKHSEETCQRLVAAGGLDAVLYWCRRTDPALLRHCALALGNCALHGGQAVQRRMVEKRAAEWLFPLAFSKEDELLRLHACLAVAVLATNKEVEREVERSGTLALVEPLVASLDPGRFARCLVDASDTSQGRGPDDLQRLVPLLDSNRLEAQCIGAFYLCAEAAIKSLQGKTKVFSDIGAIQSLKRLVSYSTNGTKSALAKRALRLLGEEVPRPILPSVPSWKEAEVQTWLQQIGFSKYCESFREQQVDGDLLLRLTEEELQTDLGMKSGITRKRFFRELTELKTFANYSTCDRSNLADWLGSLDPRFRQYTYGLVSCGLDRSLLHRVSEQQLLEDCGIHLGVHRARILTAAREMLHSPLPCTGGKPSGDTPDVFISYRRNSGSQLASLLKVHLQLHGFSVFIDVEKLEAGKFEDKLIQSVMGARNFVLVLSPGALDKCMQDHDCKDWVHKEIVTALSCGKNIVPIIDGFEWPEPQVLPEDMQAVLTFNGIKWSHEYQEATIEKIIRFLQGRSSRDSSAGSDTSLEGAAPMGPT
Description: Purified hSARM1w.t. was first diluted to 800 nM in 25 mM HEPES pH 7.5, 150 mM NaCl, and then mixed in 37° C. with different concentrations of NAD+(in the same buffer) in a 1:1 v/v ratio and incubated for 0, 5 and 30 min. 1:100 (v/v). BSA (NEB Inc. 20 mg/ml) was included, and reactions were stopped by heating at 95° C. for 2 minutes. Where specified, NMN (Sigma-Aldrich-N3501) was added in different concentrations. For control, NAD+ consumption was compared to a commercially available porcine brain NADase 0.025 units/ml (Sigma-Aldrich-N9879).
HPLC measurements were performed using a Merck Hitachi Elite LaChrom HPLC system equipped with an autosampler, UV detector and quaternary pump. HPLC traces were monitored at 260 nm and integrated using EZChrom Elite software. 10 μL of each sample were injected onto a Waters Spherisorb ODS1 C18 RP HPLC Column (5 μm particle size, 4.6 mm×150 mm ID). HPLC solvents are: A: 100% methanol; B: 120 mM sodium phosphate pH 6.0; C double-distilled water (DDW). The column was pre-equilibrated with B:C mixture ratio of 80:20. Chromatography was performed at room temperature with a flow rate of 1.5 ml/min. Each analysis cycle was 12 min long as follows (A:B:C, v/v): fixed 0:80:20 0-4 min; gradient to 20:80:0 4-6 min; fixed 20:80:0 from 6-9 min. gradient to 0:80:20 from 9-10 min; fixed 0:80:20 from 10-12 min. The NAD+ hydrolysis product ADPR was eluted at the isocratic stage of the chromatography while NAD+ elutes in the methanol gradient stage.

hSARM1 [2] = target: T1, hSARM1; experiment: Determination of IC50 and mode of inhibition of hSARM1 NADase (ADPR by HPLC); assay type: biochemical; conditions: for mode of inhibition, Lineweaver-Burk plot: 10 μM inhibitor, NAD+ 1-160 μM; for IC50: 50 μM NAD+, 10 min pre-incubation at room temperature, 10 min at 37° C.
Mouse DRG explants [3] = experiment: Axon degeneration assay after axotomy, DRG explants; assay type: cell-based; conditions: 10-30 μM compound; 16 hours post axotomy
Description: (§1) FIG. 15A. Mouse DRG explants cultures were grown in NGF containing media for 96 hours. Right before axotomy, the media was exchanged and supplemented with either 10-30 μM of the hSARM1 inhibitory compounds or just with 0.2% DMSO for control, and then the culture were left to grow for additional 16 hours. The white dashed lines indicate cut site (axotomy). To evaluate toxic side effects, we applied […] of the inhibitory compounds without performing axotomy. The axons were stained with anti-Tuj1 antibody.
(§2) Dorsal root ganglion (DRG) were dissected from E13.5 wild-type mice and plated in 8-wells chamber coated with 10 μg/ml poly-d-lysin (Sigma-Aldrich, St Louis. Mo.) and 10 μg/ml mouse Laminin (Sigma-Aldrich). The DRGs were grown in Neurobasal™-A (NB, GIBCO, 10888022) medium supplemented with B27 (Gibco, Waltham, Mass.), penicillin-streptomycin solution, glutamine (Biological Industries, Beit HaEmek, Israel), and NGF (Alomone Labs. Jerusalem, Israel) in a humidified incubator (37° C. 5% CO2).
(§3) After 96 h, the medium was exchanged to NGF containing medium, supplemented with 10-30 μM SARM1 inhibitory compounds, which were first dissolved in DMSO to a 10 mM stock concentration. For axotomy, axons were cut using a needle, in close proximity to the cell body and were examined 16 hours post-axotomy. […]
(§4) Images were binarized such that pixels corresponding to axons converted to white, while all other regions converted to black. The images were analyzed using Image) software with algorithm that distinguishes fragmented from intact axonal segments. To each image we calculated the degeneration index (DI) defined as the ratio of fragmented to intact axon number. To quantify axonal protection, we normalized the DI values to DMSO with axotomy, and then we divide one by each calculated value. […] To quantify axonal degeneration caused by the compounds' toxicity, we normalized the DI values to DMSO control without axotomy and generated a degeneration index. From each explant, 4 nonoverlapping frames were randomly collected and quantified per experimental condition.

Mouse DRG explants [4] = experiment: Toxic side effects on DRG explants without axotomy; assay type: cell-based; conditions: 10-30 μM compound; no axotomy
Description: as §1, §2, §3, §4

zfSARM1 = target: T2, zfSARM1 (Danio rerio, UniProt F1QWA8); experiment: Effect of hSARM1 inhibitors on zfSARM1 NADase activity (ADPR by HPLC); assay type: biochemical, Zebrafish
T2 sequence (F1QWA8 1-713): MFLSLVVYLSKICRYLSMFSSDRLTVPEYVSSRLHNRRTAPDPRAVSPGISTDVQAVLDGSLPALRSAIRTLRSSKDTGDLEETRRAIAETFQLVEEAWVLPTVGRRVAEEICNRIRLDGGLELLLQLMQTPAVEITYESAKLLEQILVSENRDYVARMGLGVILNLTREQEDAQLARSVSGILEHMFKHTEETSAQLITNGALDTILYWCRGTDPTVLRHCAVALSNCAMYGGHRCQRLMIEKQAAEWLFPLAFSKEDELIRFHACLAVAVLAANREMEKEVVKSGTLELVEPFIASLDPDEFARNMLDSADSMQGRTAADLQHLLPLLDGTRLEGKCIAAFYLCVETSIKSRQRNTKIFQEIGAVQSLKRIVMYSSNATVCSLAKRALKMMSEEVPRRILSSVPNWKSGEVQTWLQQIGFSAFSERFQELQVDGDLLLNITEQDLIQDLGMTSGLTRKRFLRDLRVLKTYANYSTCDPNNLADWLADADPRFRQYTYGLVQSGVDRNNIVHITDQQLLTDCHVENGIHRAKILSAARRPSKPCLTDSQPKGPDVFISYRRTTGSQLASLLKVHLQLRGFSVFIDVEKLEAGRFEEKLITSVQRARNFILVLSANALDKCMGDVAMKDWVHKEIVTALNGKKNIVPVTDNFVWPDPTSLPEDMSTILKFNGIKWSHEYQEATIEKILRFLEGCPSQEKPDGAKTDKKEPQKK

hSARM1 FP255-6RR (human) = hSARM1 FP255-6RR (human) (UniProt Q6SZW1); experiment: cell-based or functional assay
[5] = target: hSARM1RR216-7EE/FP255-6RR (human) (UniProt Q6SZW1); experiment: cell-based or functional assay

Row | Compound | mode of inhibition, Lineweaver-Burk plot (hSARM1 [2]) | protection of axons after axotomy (Mouse DRG explants [3]) | toxic effect on axons without axotomy (Mouse DRG explants [4]) | IC50 (hSARM1 [2]) [µM] | further results
1 | NC(=O)c1ccc[n+]([C@@H]2O[C@H](COP(=O)([O-])O)[C@@H](O)[C@H]2O)c1 [NMN, nicotinamide mononucleotide, reference compound] |  |  |  |  | effect on hSARM1 NADase activity (hSARM1 [1]; 0.2 mM NMN): no visible effect; increase in hSARM1 NADase activity (hSARM1 [1]; 1 mM NMN): 30%
2 | O=NN1CCCCC1 [TK138] | competitive pattern | high level of protection; also recorded: highest level of protection | only very mildly toxic; also recorded: significant toxic effect |  | EC50 (zfSARM1; 50 μM NAD+, ADPR production by HPLC, read-out: EC50, activation of zfSARM1 NADase): 2.7 µM
3 | CCOC(=O)Cn1sc2nc(C)cc(C)c2c1=O [TK142] | competitive pattern | only mild protection | not toxic at all | ≤ 10 | effect on zfSARM1 NADase activity (words) (zfSARM1): concentration-dependent inhibitory effects; effect on zfSARM1 NADase activity (words) (zfSARM1; listed as TK 142): specific inhibitory effect
4 | O=C(c1ccccn1)N1C[C@H]2OC(=O)N(CCCN3CCOCC3)[C@H]2C1 [TK174] |  | did not protect axons after axotomy | not toxic | ≤ 10 | 
5 | hSARM1 FP255-6RR (from UniProt Q6SZW1 26-724) (enzyme) |  |  |  |  | cell death 24 hours after transfection (resazurin fluorescence assay, HEK-293T cells) (hSARM1 FP255-6RR (human)): 50%
6 | hSARM1RR216-7EE/FP255-6RR (from UniProt Q6SZW1 26-724) (enzyme) |  |  |  |  | cell death 24 hours after transfection (resazurin fluorescence assay, HEK-293T cells) [5]: 50%
